In ChEMBL document CHEMBL2429821, “A Casein kinase 1/Checkpoint kinase 1 pyrazolo-pyridine protein kinase inhibitor as novel activator of the p53 pathway” (Bioorg Med Chem Lett, 2013):

Key:
[1] = molecular target: RAC-alpha serine/threonine-protein kinase (Homo sapiens) (UniProt P31749); assay: Inhibition of human PKBalpha assessed as residual activity at 1 uM relative to control
[2] = molecular target: Casein kinase II (Homo sapiens) (UniProt P67870+P68400+P19784); assay: Inhibition of human CK2 assessed as residual activity at 1 uM relative to control; format: protein-complex assay
[3] = molecular target: Ephrin type-A receptor 2 (Homo sapiens) (UniProt P29317); assay: Inhibition of human EPHA2 assessed as residual activity at 10 uM relative to control
[4] = molecular target: Homeodomain-interacting protein kinase 2 (Homo sapiens) (UniProt Q9H2X6); assay: Inhibition of human HIPK2 assessed as residual activity at 10 uM relative to control
[5] = molecular target: Tyrosine-protein kinase CSK (Homo sapiens) (UniProt P41240); assay: Inhibition of human CSK assessed as residual activity at 10 uM relative to control
[6] = molecular target: T1, Serine/threonine-protein kinase Nek2 (Homo sapiens) (UniProt P51955); assay: Inhibition of human NEK2alpha assessed as residual activity at 1 uM relative to control
T1 sequence (whole entry): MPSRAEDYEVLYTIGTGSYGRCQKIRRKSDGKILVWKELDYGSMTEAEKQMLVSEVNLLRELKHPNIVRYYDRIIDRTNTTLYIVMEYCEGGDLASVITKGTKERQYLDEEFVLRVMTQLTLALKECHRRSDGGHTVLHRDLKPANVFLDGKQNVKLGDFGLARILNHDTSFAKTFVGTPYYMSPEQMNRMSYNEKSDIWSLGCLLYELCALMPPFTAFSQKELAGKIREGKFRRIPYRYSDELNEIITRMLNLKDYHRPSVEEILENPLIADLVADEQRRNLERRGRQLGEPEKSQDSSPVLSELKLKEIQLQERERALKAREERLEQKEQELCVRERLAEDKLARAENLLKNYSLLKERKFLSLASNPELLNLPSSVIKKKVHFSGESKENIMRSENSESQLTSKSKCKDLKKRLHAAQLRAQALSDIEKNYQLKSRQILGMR

[7] = molecular target: Dual specificity tyrosine-phosphorylation-regulated kinase 1A (Rattus norvegicus) (UniProt Q63470); assay: Inhibition of rat DYRK1alpha assessed as residual activity at 10 uM relative to control
[8] = molecular target: Tyrosine-protein kinase BTK (Homo sapiens) (UniProt Q06187); assay: Inhibition of human BTK assessed as residual activity at 10 uM relative to control
[9] = molecular target: Rho-associated protein kinase 2 (Rattus norvegicus) (UniProt Q62868); assay: Inhibition of rat ROCK2 assessed as residual activity at 1 uM relative to control
[10] = molecular target: Serine/threonine-protein kinase PAK 4 (Homo sapiens) (UniProt O96013); assay: Inhibition of human PAK4 assessed as residual activity at 1 uM relative to control
[11] = molecular target: T2, Serine/threonine-protein kinase TBK1 (Homo sapiens) (UniProt Q9UHD2); assay: Inhibition of human TBK1 assessed as residual activity at 1 uM relative to control
T2 sequence (whole entry): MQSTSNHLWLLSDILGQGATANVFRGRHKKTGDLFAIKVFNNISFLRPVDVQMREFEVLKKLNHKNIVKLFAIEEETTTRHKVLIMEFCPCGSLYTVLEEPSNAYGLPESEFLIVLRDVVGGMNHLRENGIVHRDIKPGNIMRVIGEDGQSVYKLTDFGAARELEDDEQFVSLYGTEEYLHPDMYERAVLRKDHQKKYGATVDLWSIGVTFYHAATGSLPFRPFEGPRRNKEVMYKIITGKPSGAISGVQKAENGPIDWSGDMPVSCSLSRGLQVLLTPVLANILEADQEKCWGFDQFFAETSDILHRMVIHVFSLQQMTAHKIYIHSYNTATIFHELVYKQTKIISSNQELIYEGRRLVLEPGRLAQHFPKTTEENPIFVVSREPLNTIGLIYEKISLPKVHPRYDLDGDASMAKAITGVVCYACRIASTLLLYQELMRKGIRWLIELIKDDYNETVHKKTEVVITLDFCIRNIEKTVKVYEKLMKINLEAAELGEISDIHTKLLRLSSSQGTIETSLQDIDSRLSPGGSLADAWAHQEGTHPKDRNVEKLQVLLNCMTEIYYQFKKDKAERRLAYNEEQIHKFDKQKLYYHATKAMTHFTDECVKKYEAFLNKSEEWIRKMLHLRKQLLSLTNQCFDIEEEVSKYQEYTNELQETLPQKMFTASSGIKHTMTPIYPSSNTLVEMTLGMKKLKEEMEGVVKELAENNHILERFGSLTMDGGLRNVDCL

[12] = molecular target: RAC-alpha serine/threonine-protein kinase (Homo sapiens) (UniProt P31749); assay: Inhibition of human PKBalpha assessed as residual activity at 10 uM relative to control
[13] = molecular target: Serine/threonine-protein kinase PAK 4 (Homo sapiens) (UniProt O96013); assay: Inhibition of human PAK4 assessed as residual activity at 10 uM relative to control
[14] = molecular target: T3, Serine/threonine-protein kinase Chk1 (Homo sapiens) (UniProt O14757); assay: Inhibition of human CHK1 assessed as residual activity at 10 uM relative to control
T3 sequence (whole entry): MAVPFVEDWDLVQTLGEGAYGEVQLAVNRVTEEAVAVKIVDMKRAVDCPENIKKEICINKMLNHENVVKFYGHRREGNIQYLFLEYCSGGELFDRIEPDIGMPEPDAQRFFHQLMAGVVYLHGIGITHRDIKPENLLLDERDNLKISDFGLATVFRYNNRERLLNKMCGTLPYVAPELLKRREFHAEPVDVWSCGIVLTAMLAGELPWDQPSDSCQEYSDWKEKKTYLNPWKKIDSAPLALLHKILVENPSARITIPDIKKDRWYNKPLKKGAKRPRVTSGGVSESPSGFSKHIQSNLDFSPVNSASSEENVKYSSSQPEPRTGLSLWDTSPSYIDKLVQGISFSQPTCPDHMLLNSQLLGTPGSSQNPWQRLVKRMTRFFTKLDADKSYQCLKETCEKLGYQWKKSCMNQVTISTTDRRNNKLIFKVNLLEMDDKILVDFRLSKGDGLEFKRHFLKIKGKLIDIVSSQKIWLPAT

RAC-alpha serine/threonine-protein kinase (Homo sapiens), sequence (P31749 whole entry): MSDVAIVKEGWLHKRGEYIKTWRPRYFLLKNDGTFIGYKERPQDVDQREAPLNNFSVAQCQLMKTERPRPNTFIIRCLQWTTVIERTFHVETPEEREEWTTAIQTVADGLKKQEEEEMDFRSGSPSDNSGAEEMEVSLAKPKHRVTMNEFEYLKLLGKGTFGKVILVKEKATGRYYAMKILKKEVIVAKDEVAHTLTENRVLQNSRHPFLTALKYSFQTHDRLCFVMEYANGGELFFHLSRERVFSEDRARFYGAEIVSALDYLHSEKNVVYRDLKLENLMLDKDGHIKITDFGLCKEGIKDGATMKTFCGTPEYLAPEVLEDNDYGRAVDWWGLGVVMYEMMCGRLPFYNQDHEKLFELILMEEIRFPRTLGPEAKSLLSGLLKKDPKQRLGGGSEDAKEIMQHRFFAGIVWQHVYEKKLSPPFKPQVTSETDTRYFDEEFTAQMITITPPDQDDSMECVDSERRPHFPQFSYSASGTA
Tyrosine-protein kinase BTK (Homo sapiens), sequence (Q06187 whole entry): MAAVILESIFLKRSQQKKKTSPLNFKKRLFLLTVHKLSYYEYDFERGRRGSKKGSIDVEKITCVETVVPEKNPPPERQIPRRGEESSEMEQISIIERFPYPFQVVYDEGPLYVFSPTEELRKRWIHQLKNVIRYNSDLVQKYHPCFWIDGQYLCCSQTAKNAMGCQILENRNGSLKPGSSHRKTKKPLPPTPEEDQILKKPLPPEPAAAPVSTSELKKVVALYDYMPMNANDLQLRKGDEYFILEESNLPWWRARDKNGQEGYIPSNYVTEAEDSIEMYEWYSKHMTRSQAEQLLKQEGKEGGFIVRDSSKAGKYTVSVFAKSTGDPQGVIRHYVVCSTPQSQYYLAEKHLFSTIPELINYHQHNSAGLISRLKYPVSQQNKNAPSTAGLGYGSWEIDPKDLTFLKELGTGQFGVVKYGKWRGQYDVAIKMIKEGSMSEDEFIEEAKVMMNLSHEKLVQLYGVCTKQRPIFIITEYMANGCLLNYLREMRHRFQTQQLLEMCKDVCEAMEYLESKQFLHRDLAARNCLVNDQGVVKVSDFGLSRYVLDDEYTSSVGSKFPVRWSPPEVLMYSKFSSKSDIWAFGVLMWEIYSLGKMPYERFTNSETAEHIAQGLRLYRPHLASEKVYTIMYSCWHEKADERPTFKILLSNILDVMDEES
Rho-associated protein kinase 2 (Rattus norvegicus), sequence (Q62868 whole entry, looked up): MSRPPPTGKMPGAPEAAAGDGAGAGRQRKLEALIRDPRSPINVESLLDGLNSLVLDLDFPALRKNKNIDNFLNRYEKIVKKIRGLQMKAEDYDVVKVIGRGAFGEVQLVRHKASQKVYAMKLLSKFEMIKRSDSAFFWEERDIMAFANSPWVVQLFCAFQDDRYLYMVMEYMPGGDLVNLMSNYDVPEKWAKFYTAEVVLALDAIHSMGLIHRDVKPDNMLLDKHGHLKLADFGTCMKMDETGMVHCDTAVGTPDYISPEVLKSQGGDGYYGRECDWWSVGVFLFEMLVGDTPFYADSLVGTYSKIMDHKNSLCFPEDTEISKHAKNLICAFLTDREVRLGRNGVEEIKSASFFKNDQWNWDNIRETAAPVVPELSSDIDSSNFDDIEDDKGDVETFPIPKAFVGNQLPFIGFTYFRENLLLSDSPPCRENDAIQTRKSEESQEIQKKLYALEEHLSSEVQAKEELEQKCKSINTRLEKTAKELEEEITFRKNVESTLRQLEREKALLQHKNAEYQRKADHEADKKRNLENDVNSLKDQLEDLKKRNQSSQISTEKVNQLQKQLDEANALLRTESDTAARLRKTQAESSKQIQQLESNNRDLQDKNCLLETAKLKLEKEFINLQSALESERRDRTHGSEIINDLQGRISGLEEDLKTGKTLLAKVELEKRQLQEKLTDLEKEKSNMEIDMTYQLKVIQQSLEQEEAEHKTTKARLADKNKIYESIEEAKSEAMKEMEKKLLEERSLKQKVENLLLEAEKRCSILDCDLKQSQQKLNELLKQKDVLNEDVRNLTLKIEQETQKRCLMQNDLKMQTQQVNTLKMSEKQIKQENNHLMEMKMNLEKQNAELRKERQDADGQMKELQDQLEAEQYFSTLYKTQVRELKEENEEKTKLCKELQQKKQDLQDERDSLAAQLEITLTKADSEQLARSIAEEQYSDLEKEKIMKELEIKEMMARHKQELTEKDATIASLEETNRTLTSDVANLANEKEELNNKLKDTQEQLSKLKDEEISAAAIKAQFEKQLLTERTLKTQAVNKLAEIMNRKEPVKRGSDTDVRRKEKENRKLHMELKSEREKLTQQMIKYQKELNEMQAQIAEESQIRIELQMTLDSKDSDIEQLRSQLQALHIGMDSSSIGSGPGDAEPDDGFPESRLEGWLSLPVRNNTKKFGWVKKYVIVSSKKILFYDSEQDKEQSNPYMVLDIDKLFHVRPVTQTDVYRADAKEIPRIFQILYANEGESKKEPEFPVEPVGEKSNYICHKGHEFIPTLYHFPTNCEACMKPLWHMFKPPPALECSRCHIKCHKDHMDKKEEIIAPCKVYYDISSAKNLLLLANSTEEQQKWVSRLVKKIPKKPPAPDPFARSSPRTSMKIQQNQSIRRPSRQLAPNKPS
Serine/threonine-protein kinase PAK 4 (Homo sapiens), sequence (O96013 whole entry, looked up): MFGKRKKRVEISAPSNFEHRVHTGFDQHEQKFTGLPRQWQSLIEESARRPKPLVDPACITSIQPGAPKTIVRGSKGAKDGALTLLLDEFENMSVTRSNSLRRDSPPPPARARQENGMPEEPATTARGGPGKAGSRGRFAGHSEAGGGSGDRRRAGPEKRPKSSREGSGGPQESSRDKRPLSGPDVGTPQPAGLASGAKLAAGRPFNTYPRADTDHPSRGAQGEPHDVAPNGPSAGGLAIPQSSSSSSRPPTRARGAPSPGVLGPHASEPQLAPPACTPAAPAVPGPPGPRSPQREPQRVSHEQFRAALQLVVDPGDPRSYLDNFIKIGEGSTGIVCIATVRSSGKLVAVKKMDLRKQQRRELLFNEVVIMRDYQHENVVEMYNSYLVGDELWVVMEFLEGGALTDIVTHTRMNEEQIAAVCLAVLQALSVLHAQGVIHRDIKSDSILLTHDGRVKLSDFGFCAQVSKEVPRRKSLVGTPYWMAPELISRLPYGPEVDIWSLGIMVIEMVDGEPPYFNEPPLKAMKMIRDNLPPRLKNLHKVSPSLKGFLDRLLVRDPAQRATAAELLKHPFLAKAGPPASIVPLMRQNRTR
Ephrin type-A receptor 2 (Homo sapiens), sequence (P29317 whole entry): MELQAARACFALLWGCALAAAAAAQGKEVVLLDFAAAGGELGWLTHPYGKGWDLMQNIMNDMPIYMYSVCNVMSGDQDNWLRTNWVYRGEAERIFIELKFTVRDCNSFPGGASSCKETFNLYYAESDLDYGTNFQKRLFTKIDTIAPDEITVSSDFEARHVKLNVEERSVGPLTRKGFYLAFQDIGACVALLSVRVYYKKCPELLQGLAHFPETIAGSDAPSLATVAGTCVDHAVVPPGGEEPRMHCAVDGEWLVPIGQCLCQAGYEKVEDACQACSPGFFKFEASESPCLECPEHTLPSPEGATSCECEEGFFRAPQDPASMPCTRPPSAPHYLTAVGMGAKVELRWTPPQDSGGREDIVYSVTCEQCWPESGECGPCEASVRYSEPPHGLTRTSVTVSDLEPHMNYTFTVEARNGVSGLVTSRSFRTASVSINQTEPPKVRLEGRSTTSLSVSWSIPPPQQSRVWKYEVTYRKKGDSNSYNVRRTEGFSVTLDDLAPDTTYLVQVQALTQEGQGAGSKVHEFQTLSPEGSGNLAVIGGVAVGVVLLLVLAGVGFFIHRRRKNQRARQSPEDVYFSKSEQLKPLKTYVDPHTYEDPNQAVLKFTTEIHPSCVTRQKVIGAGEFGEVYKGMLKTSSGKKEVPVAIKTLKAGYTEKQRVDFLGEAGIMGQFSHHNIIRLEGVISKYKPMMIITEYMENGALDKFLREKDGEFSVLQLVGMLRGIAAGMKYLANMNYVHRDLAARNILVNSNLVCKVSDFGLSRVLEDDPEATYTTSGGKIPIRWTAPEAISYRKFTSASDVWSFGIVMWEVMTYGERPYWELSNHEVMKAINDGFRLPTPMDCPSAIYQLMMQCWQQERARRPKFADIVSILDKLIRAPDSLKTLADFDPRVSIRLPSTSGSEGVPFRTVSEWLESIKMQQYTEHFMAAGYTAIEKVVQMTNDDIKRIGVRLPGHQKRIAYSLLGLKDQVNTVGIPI
Tyrosine-protein kinase CSK (Homo sapiens), sequence (P41240 2-450 limits assumed): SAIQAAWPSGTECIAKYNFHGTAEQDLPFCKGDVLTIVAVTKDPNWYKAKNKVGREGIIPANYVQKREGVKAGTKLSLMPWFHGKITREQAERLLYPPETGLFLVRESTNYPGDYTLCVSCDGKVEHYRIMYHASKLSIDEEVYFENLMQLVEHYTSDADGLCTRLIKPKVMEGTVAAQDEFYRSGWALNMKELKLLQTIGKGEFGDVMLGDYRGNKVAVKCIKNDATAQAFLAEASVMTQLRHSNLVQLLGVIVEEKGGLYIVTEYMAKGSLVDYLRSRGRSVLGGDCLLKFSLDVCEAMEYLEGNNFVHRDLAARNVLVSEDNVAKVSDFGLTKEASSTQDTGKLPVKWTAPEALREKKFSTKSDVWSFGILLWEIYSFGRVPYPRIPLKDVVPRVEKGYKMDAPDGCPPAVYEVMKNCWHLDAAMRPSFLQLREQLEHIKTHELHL

Row | Activity [1] | Activity [2] | Activity [3] | Activity [4] | Activity [5] | Activity [6] | Activity [7] | Activity [8] | Activity [9] | Activity [10] | Activity [11] | Activity [12] | Activity [13] | Activity [14] | Structure (SMILES)
1 | 89.5% | 102% | 69.5% | 42.4% | 48% | 53.5% | 39.9% | 16.5% | 93.9% | 71.2% | 88.9% | 51.1% | 51.9% | 4.34% | CC(=O)Nc1cccc(-c2cnc3[nH]nc(C)c3c2)c1
2 | 94% | 82% | 88% | 31% | 80% | 97% | 2% | 69% | 121% | 89% | 91% | 91% | 79% | 82% | CCCC(=O)Nc1n[nH]c2ncc(-c3cccnc3)cc12
3 | 112% | 79.3% | 91.9% | 94.2% | 104% | 85.8% | 102% | 99.7% | 95% | 115% | 106% | 115% | 106% | 105% | CC(=O)Nc1nccc(-c2c(-c3ccccc3)noc2C)n1
